In patent US9521845B2, “Beta-lactones as antibacterial agents” (LUDWIG-MAXIMILIANS-UNIVERSITÄT-MÜNCHEN, priority 2008, dated 2016):

Columns and labels:
[1] = molecular target: T1, Aldehyde dehydrogenase B (ADB) (Escherichia coli, UniProt P37685); experiment: ABPP labeling of E. coli cytosol; assay type: binding; conditions: 100 nM probe concentration, no other off targets
T1 construct: endogenous in cells; host or cells: Escherichia coli K12 lysate, cytosol fraction
Description: To estimate the strength of probe interactions with proteins in the proteome, we compared the reactivity profiles of selected beta-lactones across a broad concentration range from 10 μM to 5 nM.
Proteome samples were adjusted to a final concentration of 1 mg protein/mL by dilution in PBS prior to probe labeling. Experiments for visualization by 1D SDS-PAGE were carried out in 43 μL total volume and those for affinity enrichment in 1892 μL total volume, such that once CC reagents were added, the total reaction volume was 50 μL and 2 mL, respectively. Reactions were initiated by addition of the probe and allowed to incubate for 60 min at room temperature. For heat controls the proteome was denatured with 1 μL of 43% SDS at 95° C. for 6 min and cooled to room temperature before the probe was applied. Following incubation, reporter tagged-azide reagents (13 μM rhodamine-azide for analytical or 20 μM rhodamine-biotin-azide for preparative scale) were added followed by 1 mM TCEP and 100 μM ligand. Samples were gently vortexed and the cycloaddition initiated by the addition of 1 mM CuSO4. The reactions were incubated at room temperature for 1 h (Speers, J. Amer. Chem. Soc. 125 (2003), 4686).

[2] = test system: extracellular DNase of S. aureus; experiment: DNase assay using DNA containing agar plates; assay type: cell-based, Staphylococcus aureus; conditions: 250 nmol
Description: FIG. 4: Agar plate-based virulence assays.
A dose down in FIG. 5 indicates the different potencies of structurally diverse ClpP inhibitors for E2, G2 and D3. […] Extracellular DNase also is part of the S. aureus virulence factors. Its purpose is to destroy the hosts DNA and provide a nutritional source for S. aureus.

ClpP [3] = molecular target: T2, ClpP (Listeria monocytogenes serovar 1/2a, UniProt Q9RQI6); experiment: In vivo labeling of Listeria proteomes; assay type: cell-based; conditions: living L. monocytogenes EGDe, cytosol, 2 h incubation
T2 construct: endogenous in cells; host or cells: living Listeria monocytogenes EGDe, stationary phase
T2 sequence (Q9RQI6 whole entry): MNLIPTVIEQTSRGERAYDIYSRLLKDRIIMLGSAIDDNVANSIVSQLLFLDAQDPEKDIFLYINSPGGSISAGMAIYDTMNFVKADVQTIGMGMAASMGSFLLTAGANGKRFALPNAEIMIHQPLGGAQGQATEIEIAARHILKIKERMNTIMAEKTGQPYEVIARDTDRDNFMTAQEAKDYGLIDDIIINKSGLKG
Description: For analytical and preparative in vivo studies, Listeria were grown to stationary phase and harvested by centrifugation at 4,000 rpm 1 h after entrance in the stationary phase (1.5 ml for analytical and 15 ml for preparative studies). The cell pellets were washed once with PBS and resuspended in 100 μL and 500 μL PBS for analytical and preparative studies, respectively. The cell suspensions were incubated for 2 h with varying concentrations of probe at room temperature. Probes were applied from DMSO stocks whereby DMSO never exceeded 2% in the final solution. For preparative experiments, 50 μM of the probes was added to the cells resuspended in PBS. After incubation, the cells were washed thoroughly three times with PBS to remove excess probe from the supernatant. Subsequently the cells were lysed in 100 μL (500 μL) PBS by sonication with a Bandelin Sonopuls with 3×20 sec. pulsed at 70% max. power. For analytical experiments 44 μL proteome were used to append a reporter tag via CC, such that once CC reagents were added, the total reaction volume was 50 μL. In preparative purposes the total volume of 500 μL it was consumed per experiment. Reporter tagged-azide reagents (13 μM rhodamine-azide for analytical or 20 μM rhodamine-biotin-azide for preparative scale) were added followed by 1 mM TCEP and 100 μM ligand. Samples were gently vortexed and the cycloaddition initiated by the addition of 1 mM CuSO4. The reactions were incubated at room temperature for 1 h. For analytical gel electrophoresis, 50 μL 2×SDS loading buffer were added and 50 μL applied on the gel. Fluorescence was recorded in a Fujifilm Las-3000 Fluoreszenz Darkbox with a Fujinon VRF 43LMD Lens, 605DF40 filter and 520 nm EPI excitation wavelength.

[4] = test system: proteolysis abilities of Staphylococcus aureus; experiment: Milk agar plate-based proteolysis assay; assay type: cell-based
Description: FIG. 6: Milk agar plate-based assay illustrating that beta-lactones have an effect on the proteolysis abilities of Staphylococcus aureus. 2.5 μL of S. aureus LB dilution (OD600=0.13 corresponding to approx. 1×10^8 cfu/ml) and 2.5 μL DMSO/beta-lactone in DMSO were applied on Whatman Cards placed on 1% skim milk LB agar plates and incubated at 37° C. over night. A) Direct comparison of beta-lactones as shown in FIG. 2 at a total amount of 250 nmol applied on Whatman Cards. B) Dose down with beta-lactones D3, E2 and G2 at applied concentrations of 100 mM, 50 mM, 25 mM, 12.5 mM, 6.25 mM and 0 mM (corresponding to total amounts of 250 nmol, 125 nmol, 62.5 nmol, 31.3 nmol, 15.6 nmol and 0 nmol, respectively). C) Proteolysis zone size plotted against the total amount of the respective beta-lactone.
2.5 μL of S. aureus LB dilution (OD600=0.13 corresponding to approx. 1×10^8 cfu/ml) and 2.5 μL DMSO/beta-lactone in DMSO were applied on Whatman Cards placed on 1% skim milk LB agar plates and incubated at 37° C. over night. FIG. 6A directly compares the β-lactones at a total amount of 250 nmol applied on Whatman Cards. […] For D3 and E2 almost no proteolysis is observed down to a total amount of 125 nmol of the respective beta-lactone. FIG. 6C illustrates that the proteolysis zone size plotted against the total amount of beta-lactone visualizes the strong effects particularly of D3 and E2.

ClpP [5] = molecular target: T3, ClpP (Staphylococcus aureus, UniProt Q2G036); experiment: In vivo labelling of the proteome of S. aureus; assay type: cell-based
T3 construct: endogenous in cells
T3 sequence (Q2G036 1-195): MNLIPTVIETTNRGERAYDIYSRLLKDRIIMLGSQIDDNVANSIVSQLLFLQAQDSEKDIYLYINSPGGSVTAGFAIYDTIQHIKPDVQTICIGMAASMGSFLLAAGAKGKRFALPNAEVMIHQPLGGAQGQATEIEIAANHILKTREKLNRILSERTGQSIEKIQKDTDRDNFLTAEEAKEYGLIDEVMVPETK
Description: FIG. 16: In vivo labelling of the proteome of S. aureus with beta-lactones. Probes were applied at a certain concentration to approx. 2×10^9 cfu of stationary phase S. aureus in 100 μL PBS and incubated for 2 h. Excess probe (beta-lactone) was removed by washing the cells 3× with 1 mL PBS each. Then the cells were lysed by sonication. ClpP has been identified by mass spectrometry from preparative SDS gels after workup and tryptic digestion. B) In vivo dose down of beta-lactones D3, E2 and G2 with S. aureus indicates strong labeling by beta-lactone D3. C) Increase of selectivity at 8.0 μM concentration.
This example relates to the in vivo labelling of the proteome of S. aureus with β-lactones. The beta-lactones were applied at a certain concentration to approx. 2×10^9 cfu of stationary phase S. aureus in 100 μL PBS and incubated for 2 h. Excess beta-lactone was removed by washing the cells 3× with 1 mL PBS each. Then the cells were lysed by sonication. […] ClpP has been identified by mass spectrometry from preparative SDS gels after workup and tryptic digestion.

T1 sequence (P37685 whole entry): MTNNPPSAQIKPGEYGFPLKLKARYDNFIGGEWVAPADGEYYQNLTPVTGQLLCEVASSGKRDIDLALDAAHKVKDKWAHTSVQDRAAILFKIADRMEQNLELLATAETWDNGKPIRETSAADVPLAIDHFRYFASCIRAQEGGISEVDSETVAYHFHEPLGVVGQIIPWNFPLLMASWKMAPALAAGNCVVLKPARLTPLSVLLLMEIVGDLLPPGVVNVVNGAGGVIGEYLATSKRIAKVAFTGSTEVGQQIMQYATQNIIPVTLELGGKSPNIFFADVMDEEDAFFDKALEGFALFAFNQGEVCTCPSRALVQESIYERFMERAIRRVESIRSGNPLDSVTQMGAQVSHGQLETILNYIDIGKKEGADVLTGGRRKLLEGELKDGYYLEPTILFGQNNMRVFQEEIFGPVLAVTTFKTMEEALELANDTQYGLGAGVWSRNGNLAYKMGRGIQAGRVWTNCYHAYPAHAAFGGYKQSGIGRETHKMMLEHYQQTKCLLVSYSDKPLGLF

Q: What does the source list for C#CCCCC1OC(=O)C1CCCCCCCC=C (stereo not drawn) [D3, trans-3-(8-nonen-1-yl)-4-(4-pentyn-1-yl)oxetan-2-one]?
A: ADB labeling preference [1]: strong preference; amount of extracellular DNase [2]: effect; ClpP labeling (probe potency ranking) (ClpP [3]): most potent probes; total amount down to which almost no proteolysis is observed ([4]; dose down 250-15.6 nmol): 125 nmol; proteolytic activity of S. aureus ([4]; total amount of 250 nmol applied on Whatman Cards, 1% skim milk LB agar, 37° C. over night): strongly reduce; ClpP labelling (ClpP [5]; 8.0 μM concentration): still labelled; off-targets (selectivity) (ClpP [5]; 8.0 μM concentration): almost no off-targets are visible; ClpP labelling in in vivo dose down (ClpP [5]; stationary phase S. aureus, 2 h, dose down of D3, E2, G2): strong labelling
